In US8946154B2 (BCN Peptides, S.A., priority 2009, dated 2015):
Numbered stars: 1 amine (or outer) side, 2 acyl side, 3 side chain; on linkers, the order of the positions; unused ones are H or OH. Bridge positions count the residues as written; N and C are the ends. Square brackets hold non-standard residues; d marks the D form. Side chains are listed from the residue outwards. Peptide text beside a SMILES is read from it. * marks the point of attachment. Ethylenediamine = C(CN[*:2])N[*:1]; Hyp = O=C(O)[C@@H]1C[C@@H](O)CN1; Phg = N[C@H](C(=O)O)c1ccccc1; CO = O=C([*:1])[*:2]; Bn = c1ccc(C*)cc1

Assays:
[1] = Stability in 90% human serum
Description: The new compounds were incubated with 90% human serum at 37° C. Aliquots were extracted at different incubation times. Acetonitrile was added to precipitate the proteins from the serum, it was centrifuged and the supernatant was filtered and injected in the RP-HPLC (Grad: 20-80% B in 30 min, B=0.07% TFA in acetonitrile). The disappearance of the initial product was analyzed using the area corresponding to the initial product and the half-life time was calculated.

sstr1 receptor = sstr1 receptor (Homo sapiens, UniProt P30872); details: literature, background; cited from earlier work
Chain of sstr1 receptor (P30872 whole entry): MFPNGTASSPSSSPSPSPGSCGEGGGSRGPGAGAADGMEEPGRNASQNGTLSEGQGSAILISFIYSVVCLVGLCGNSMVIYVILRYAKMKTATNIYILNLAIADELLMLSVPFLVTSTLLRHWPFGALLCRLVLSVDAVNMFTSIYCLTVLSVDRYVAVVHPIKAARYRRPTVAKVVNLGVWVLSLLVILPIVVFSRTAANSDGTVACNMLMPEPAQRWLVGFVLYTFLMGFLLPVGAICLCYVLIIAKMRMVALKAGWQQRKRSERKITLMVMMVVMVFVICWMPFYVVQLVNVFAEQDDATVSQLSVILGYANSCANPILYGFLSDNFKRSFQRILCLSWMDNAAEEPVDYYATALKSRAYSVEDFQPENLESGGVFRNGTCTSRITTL

sstr2 receptor = sstr2 receptor (Homo sapiens, UniProt P30874); details: literature, background; cited from earlier work
Chain of sstr2 receptor (P30874 whole entry): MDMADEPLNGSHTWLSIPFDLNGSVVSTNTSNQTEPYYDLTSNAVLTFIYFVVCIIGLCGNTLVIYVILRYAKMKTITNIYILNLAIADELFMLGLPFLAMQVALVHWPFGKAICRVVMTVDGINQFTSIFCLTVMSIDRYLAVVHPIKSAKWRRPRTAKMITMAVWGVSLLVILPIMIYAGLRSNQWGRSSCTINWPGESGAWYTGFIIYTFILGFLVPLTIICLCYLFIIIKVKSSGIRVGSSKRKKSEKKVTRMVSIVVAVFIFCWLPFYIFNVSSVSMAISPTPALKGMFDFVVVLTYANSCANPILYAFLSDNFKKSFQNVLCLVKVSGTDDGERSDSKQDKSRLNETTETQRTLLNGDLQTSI

sstr4 receptor = sstr4 receptor (Homo sapiens, UniProt P31391); details: literature, background; cited from earlier work
Chain of sstr4 receptor (P31391 whole entry): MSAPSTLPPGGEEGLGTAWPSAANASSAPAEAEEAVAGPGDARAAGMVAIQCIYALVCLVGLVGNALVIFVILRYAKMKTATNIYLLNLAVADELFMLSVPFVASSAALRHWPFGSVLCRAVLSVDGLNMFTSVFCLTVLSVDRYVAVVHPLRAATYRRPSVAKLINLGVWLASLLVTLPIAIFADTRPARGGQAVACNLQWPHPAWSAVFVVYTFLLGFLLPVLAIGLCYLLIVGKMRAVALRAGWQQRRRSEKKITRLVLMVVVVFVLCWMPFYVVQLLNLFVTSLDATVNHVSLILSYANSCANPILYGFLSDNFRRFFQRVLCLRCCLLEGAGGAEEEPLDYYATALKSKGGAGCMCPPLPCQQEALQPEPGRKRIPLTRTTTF

sstr3 receptor = sstr3 receptor (Homo sapiens, UniProt P32745); details: literature, background; cited from earlier work
Chain of sstr3 receptor (P32745 whole entry): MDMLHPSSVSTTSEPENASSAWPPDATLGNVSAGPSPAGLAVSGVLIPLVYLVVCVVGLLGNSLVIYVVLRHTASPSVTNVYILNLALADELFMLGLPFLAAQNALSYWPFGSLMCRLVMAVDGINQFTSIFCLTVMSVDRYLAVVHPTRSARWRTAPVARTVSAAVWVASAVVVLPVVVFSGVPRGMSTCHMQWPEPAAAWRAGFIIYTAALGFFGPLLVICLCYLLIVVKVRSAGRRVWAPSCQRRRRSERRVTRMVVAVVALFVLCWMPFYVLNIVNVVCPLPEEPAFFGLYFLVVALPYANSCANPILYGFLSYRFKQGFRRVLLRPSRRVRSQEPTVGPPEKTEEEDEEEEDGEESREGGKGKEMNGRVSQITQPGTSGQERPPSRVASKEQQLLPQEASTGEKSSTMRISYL

Row | SMILES | half-life [1] | affinity for the sstr1 receptor (sstr1 receptor) | affinity for the sstr2 receptor (sstr2 receptor) | affinity for the sstr4 receptor (sstr4 receptor) | affinity for the sstr3 receptor (sstr3 receptor)
1 | CCCCCCCCCCCCCCCC(=O)NCCCC[C@@H]1NC(=O)[C@@H](NC(=O)CNC(=O)[C@H](C)N)CSSC[C@@H](C(=O)O)NC(=O)[C@H](CO)NC(=O)[C@H]([C@@H](C)O)NC(=O)[C@H](Cc2ccccc2)NC(=O)[C@H]([C@@H](C)O)NC(=O)[C@H](CCCCN)NC(=O)[C@H](Cc2c[nH]c3ccccc23)NC(=O)[C@H](Cc2ccccc2)NC(=O)[C@H](Cc2ccccc2)NC(=O)[C@H](CC(N)=O)NC1=O [Compound 21] | 2500 min | – | – | – | –
2 | Cc1cc(C)c(C[C@@H]2NC(=O)[C@H](CC(N)=O)NC(=O)[C@H](CCCCN)NC(=O)[C@@H](NC(=O)CNC(=O)[C@H](C)N)CSSC[C@@H](C(=O)O)NC(=O)[C@H](CO)NC(=O)[C@H]([C@@H](C)O)NC(=O)[C@H](Cc3ccccc3)NC(=O)[C@H]([C@@H](C)O)NC(=O)[C@H](CCCCN)NC(=O)[C@@H](Cc3c[nH]c4ccccc34)NC(=O)[C@H](Cc3ccccc3)NC2=O)c(C)c1 [Compound 24] | 1570 min | – | – | – | –
3 | Cc1cc(C)c(C[C@@H]2NC(=O)[C@H](Cc3ccccc3)NC(=O)[C@H](CC(N)=O)NC(=O)[C@H](CCCCN)NC(=O)[C@@H](NC(=O)CNC(=O)[C@H](C)N)CSSC[C@@H](C(=O)O)NC(=O)[C@H](CO)NC(=O)[C@H]([C@@H](C)O)NC(=O)[C@H](Cc3ccccc3)NC(=O)[C@H]([C@@H](C)O)NC(=O)[C@H](CCCCN)NC(=O)[C@@H](Cc3c[nH]c4ccccc34)NC2=O)c(C)c1 [Compound 25] | 1480 min | – | – | – | –
4 | Cc1cc(C)c(C[C@@H]2NC(=O)[C@H]([C@@H](C)O)NC(=O)[C@H](CCCCN)NC(=O)[C@@H](Cc3c[nH]c4ccccc34)NC(=O)[C@H](Cc3ccccc3)NC(=O)[C@H](Cc3ccccc3)NC(=O)[C@H](CC(N)=O)NC(=O)[C@H](CCCCN)NC(=O)[C@@H](NC(=O)CNC(=O)[C@H](C)N)CSSC[C@@H](C(=O)O)NC(=O)[C@H](CO)NC(=O)[C@H]([C@@H](C)O)NC2=O)c(C)c1 [Compound 26] | 2460 min | – | – | – | –
5 | Cc1cc(C)c(C[C@@H]2NC(=O)[C@H](CC(N)=O)NC(=O)[C@H](CCCCN)NC(=O)[C@@H](NC(=O)CNC(=O)[C@H](C)N)CSSC[C@@H](C(=O)O)NC(=O)[C@H](CO)NC(=O)[C@H]([C@@H](C)O)NC(=O)[C@H](Cc3ccccc3)NC(=O)[C@H]([C@@H](C)O)NC(=O)[C@H](CCCCN)NC(=O)[C@H](Cc3c[nH]c4ccccc34)NC(=O)[C@H](Cc3c(C)cc(C)cc3C)NC2=O)c(C)c1 [Compound 27] | 2630 min | – | – | – | –
6 | Cc1cc(C)c(C[C@@H]2NC(=O)[C@H](CC(N)=O)NC(=O)[C@H](CCCCN)NC(=O)[C@@H](NC(=O)CNC(=O)[C@H](C)N)CSSC[C@@H](C(=O)O)NC(=O)[C@H](CO)NC(=O)[C@H]([C@@H](C)O)NC(=O)[C@H](Cc3c(C)cc(C)cc3C)NC(=O)[C@H]([C@@H](C)O)NC(=O)[C@H](CCCCN)NC(=O)[C@H](Cc3c[nH]c4ccccc34)NC(=O)[C@H](Cc3c(C)cc(C)cc3C)NC2=O)c(C)c1 [Compound 30] | 5600 min | – | – | – | –
7 | CC(C)[C@@H]1NC(=O)[C@H](CCCCN)NC(=O)[C@@H](Cc2c[nH]c3ccccc23)NC(=O)[C@H](Cc2ccc(O)cc2)NC(=O)[C@@H](NC(=O)[C@H](N)Cc2ccc3ccccc3c2)CSSC[C@@H](C(=O)N[C@H](C(N)=O)[C@@H](C)O)NC1=O [lanreotide] | – | do not bind | high affinity | do not bind | moderate-low affinity
8 | C[C@@H](O)[C@@H]1NC(=O)[C@H](CCCCN)NC(=O)[C@@H](Cc2c[nH]c3ccccc23)NC(=O)[C@H](Cc2ccccc2)NC(=O)[C@@H](NC(=O)[C@H](N)Cc2ccccc2)CSSC[C@@H](C(=O)N[C@H](CO)[C@@H](C)O)NC1=O [octreotide] | – | do not bind | high affinity | do not bind | moderate-low affinity
9 | NCCCC[C@@H]1NC(=O)[C@@H](Cc2c[nH]c3ccccc23)NC(=O)[C@H](c2ccccc2)NC(=O)[C@@H]2C[C@@H](OC(=O)NCCN)CN2C(=O)[C@H](Cc2ccccc2)NC(=O)[C@H](Cc2ccc(OCc3ccccc3)cc2)NC1=O [pasireotide] (cyclo([Hyp]([CO-Ethylenediamine])[Phg][dW]KY(Bn)F)) | – | – | an order of magnitude lower | lost | –
10 | CC(C)[C@@H]1NC(=O)[C@H](CCCCN)NC(=O)[C@@H](Cc2c[nH]c3ccccc23)NC(=O)[C@H](Cc2ccc(O)cc2)NC(=O)[C@@H](NC(=O)[C@H](N)Cc2ccccc2)CSSC[C@@H](C(=O)N[C@@H](Cc2c[nH]c3ccccc23)C(N)=O)NC1=O [vapreotide] (H-[dF]CY[dW]KVCW-NH2; disulfide 2-7) | – | do not bind | high affinity | do not bind | moderate-low affinity
